The text below walks through data of article PMC7878925, “Continuous stimulation of dual-function peptide PGLP-1-VP inhibits the morbidity and mortality of NOD mice through anti-inflammation and immunoregulation” (Scientific Reports, 2021).

Where no end group is shown, it is not given here.

Data set [1] relates to DPP-IV. The data set can be described thus: in vitro. To be noted: human, isolated enzyme dpp iv. The procedure:
Stability test for DPP-IV in vitro was performed as previously described.

The target of data set [2] is human GLP-1R (Homo sapiens, UniProt P43220). In words: cell-based. The procedure:
Human embryonic kidney (HEK-293) cells were obtained from ATCC and cultured in growing media (DMEM: 25 mM glucose, 10% FBS, 100 µg/mL penicillin and 100 µg/mL streptomycin).

In data set [3] the test system is NOD mice. To be noted: 210 nmol/kg s.c. twice weekly for 24 weeks. As for the experimental part:
Female 4-week-old NOD mice were obtained from Beijing HFK Bioscience Co. Ltd. (Beijing, China). NOD mice were randomly divided into 4 groups: vehicle, PGLP-1, VP and PGLP-1-VP, and each group was subcutaneously injected twice weekly with placebo [Lipofundin[32] (B. Braun Melsungen AG, Melsungen, Germany)] or 210 nmol/kg of peptides for 24 weeks. Body weight and blood glucose were measured once every 2 weeks until the end of the observation period. NOD mice were considered diabetic when blood glucose concentrations exceeded 200 mg/dL for 2 consecutive measurements. The onset time and death time of diabetic mice were calculated. Indexes of dead mice were shown as the last blood glucose or weight data. Blood samples were collected retro-orbital and centrifuged, and then serum was collected. Serum C-peptide levels and transforming growth factor-β1 (TGF-β1) were measured by enzyme-linked immunosorbent kits (Jiancheng Bio-Engineering Institute Co., Ltd. Nanjing, China).

Chain of human GLP-1R (P43220 24-463): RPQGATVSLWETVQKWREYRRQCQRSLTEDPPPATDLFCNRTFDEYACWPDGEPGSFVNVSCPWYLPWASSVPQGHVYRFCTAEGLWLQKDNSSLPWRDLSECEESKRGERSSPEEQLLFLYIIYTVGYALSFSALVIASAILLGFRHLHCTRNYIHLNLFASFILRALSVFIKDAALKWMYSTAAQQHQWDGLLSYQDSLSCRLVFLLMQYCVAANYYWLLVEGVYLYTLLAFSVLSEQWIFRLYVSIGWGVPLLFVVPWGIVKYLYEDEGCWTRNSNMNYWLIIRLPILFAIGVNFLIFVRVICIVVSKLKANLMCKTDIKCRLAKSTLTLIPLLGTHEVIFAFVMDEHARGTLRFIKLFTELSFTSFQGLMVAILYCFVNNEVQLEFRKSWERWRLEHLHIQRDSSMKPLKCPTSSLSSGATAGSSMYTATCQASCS

Take `CC[C@H](C)[C@H](NC(=O)[C@H](Cc1ccccc1)NC(=O)[C@H](CCC(=O)O)NC(=O)[C@H](CCCCN)NC(=O)[C@H](C)NC(=O)[C@H](C)NC(=O)[C@H](CCC(N)=O)NC(=O)CNC(=O)[C@H](CCC(=O)O)NC(=O)[C@H](CC(C)C)NC(=O)[C@H](Cc1ccc(O)cc1)NC(=O)[C@H](CO)NC(=O)[C@H](CO)NC(=O)[C@@H](NC(=O)[C@H](CC(=O)O)NC(=O)[C@H](CO)NC(=O)[C@@H](NC(=O)[C@H](Cc1ccccc1)NC(=O)[C@@H](NC(=O)CNC(=O)[C@H](CCC(=O)O)NC(=O)[C@H](C)NC(=O)[C@@H](N)Cc1c[nH]cn1)[C@@H](C)O)[C@@H](C)O)C(C)C)C(=O)N[C@@H](C)C(=O)N[C@@H](Cc1c[nH]c2ccccc12)C(=O)N[C@@H](CC(C)C)C(=O)N[C@H](C(=O)N[C@@H](CCCCN)C(=O)NCC(=O)N[C@@H](CCCN=C(N)N)C(=O)NCC(=O)O)C(C)C` [GLP-1, Glucagon-like peptide-1]: the share remaining (usually the share of the starting amount still present when the sample was taken) at 10 h, 10 µM in data set [1] worked out at 6.3%.

As to “HGEGTFTSDVSSYLEGQAAKEFIAWLVKGRGPGVLGGGCRCIPALDSLTPANED (cysteines drawn unpaired) [PGLP-1-VP]”, the EC50 (in general, the concentration that produces a half-maximal response) in data set [2] was determined as 0.139 ± 0.037 µM. Further, the “body weights compared to controls” value in data set [3] was “not affected”.
